Columns and labels:
Set-up in all cases: species or system AML cell lines (8); Primary HTS, single concentration about 10 uM, Cell Titer Glo viability; log10 luminescence, per cent inhibition relative to cycloheximide control
Conditions in all cases: 72 h, relative to cycloheximide control, log10 luminescence; inhibitor
MOLM-13 = system: MOLM-13
U937 = system: U937
CMK = system: CMK
CMS = system: CMS
ML-2 = system: ML-2
MV4-11 = system: MV4-11
CHRF288-11 = system: CHRF288-11
M07e = system: M07e

SMILES	MOLM-13 %inh (MOLM-13) [%]	U937 %inh (U937) [%]	CMK %inh (CMK) [%]	CMS %inh (CMS) [%]	ML-2 %inh (ML-2) [%]	MV4-11 %inh (MV4-11) [%]	CHRF288-11 %inh (CHRF288-11) [%]	M07e %inh (M07e) [%]
O=C(O)C(Cc1ccc2c(c1)oc1ccccc12)NCP(=O)(O)O (stereo not shown) [SJ000772433-1, CGS 35066]	2.239	0.4141	-1.634	-0.6949	5.201	3.69	0.3778	2.079
C[C@H](NC(=O)Cc1cc(F)cc(F)c1)C(=O)N[C@H](C(=O)OC(C)(C)C)c1ccccc1 [SJ000772434-1, DAPT | DAPT (GSI-IX)]	2.225	0.2025	-0.675	0.2641	5.016	5.48	2.669	1.132
NC(CCC(=O)NOC(=O)c1ccccc1)C(=O)N1CCCC1 (stereo not shown) [SJ000773150-1]	1.337	-0.8595	-2.389	-1.088	1.208	-0.09979	-3.643	3.014
Cc1c[nH]c(/C=C2\C(=O)Nc3ccccc32)c1CCC(=O)O [SJ000773151-1, SU 5402 |]	64.04	-1.966	3.453	2.629	-0.6671	45.76	8.965	7.079
NC(=O)c1cc(-c2ccc(Cl)cc2)cc(-c2ccc(S(N)(=O)=O)cc2)c1N [SJ000773162-1, IKK INHIBITOR XII]	3.294	5.575	7.074	0.8646	2.717	6.438	5.412	-0.482
O=C(N/N=C/c1coc2ccccc2c1=O)c1cccnc1 [SJ000773164-1, STAT5 INHIBITOR]	0.6226	1.718	0.4302	-3.081	0.5689	5.196	2.609	-2.508
CCOC(=O)c1c(C)[nH]c(/C=C2\C(=O)Nc3ccccc32)c1C [SJ000773165-1, VEGFR2 KINASE INHIBITOR I]	14.97	-1.551	1.896	-2.877	-1.978	4.438	3.3	-1.094
O=C1Cc2c([nH]c3ccc(Br)cc23)-c2ncccc2N1 [SJ000773177-1, 1-AZAKENPAULLONE]	1.556	4.514	-2.288	11.6	3.703	9.942	3.099	0.4716
Nc1[nH]nc2nnc(-c3c(-c4ccccc4)nn4ccccc34)cc12 [SJ000773182-1, FR 180204]	10.92	0.5636	2.552	0.8706	1.644	11.54	4.206	4.808
O=C(O)c1cc2cc(O)c(O)cc2c(C(=O)c2ccc(O)c(O)c2)n1 [SJ000773184-1, NBI-31772]	2.784	2.592	20.66	0.1786	4.963	0.9533	-3.882	0.05281
N#Cc1cnc2cnc(NCc3cccnc3)cc2c1Nc1ccc(F)c(Cl)c1 [SJ000773185-1, TPL2 KINASE INHIBITOR]	88.46	7.932	12.32	-1.042	-0.1066	3.7	6.987	3.597
